Results as given in the kinase profiling compilation of Christmann-Franck et al. (2016).

Columns and labels:
Assay in all cases: radiometric filter-binding kinase assay, Kinase HotSpot
Details in all cases: compound 0.5 µM; ATP 10 µM
ACVR1 (human) = ACVR1 (human) (UniProt Q04771)
AKT2 (human) = AKT2 (human) (UniProt P31751)
BLK (human) = BLK (human) (UniProt P51451)
CAMK4 (human) = CAMK4 (human) (UniProt Q16566)
CDK5 CDK5R1 p25 (human) = CDK5 CDK5R1 p25 (human) (UniProt Q00535+Q15078)
CLK4 (human) = CLK4 (human) (UniProt Q9HAZ1)
CSNK1D (human) = CSNK1D (human) (UniProt P48730)
EPHB3 (human) = EPHB3 (human) (UniProt P54753)
EPHB4 (human) = EPHB4 (human) (UniProt P54760)
FES (human) = FES (human) (UniProt P07332)
FGFR1 (human) = FGFR1 (human) (UniProt P11362)
FGFR2 (human) = FGFR2 (human) (UniProt P21802)
IRAK4 (human) = IRAK4 (human) (UniProt Q9NWZ3)
LTK (human) = LTK (human) (UniProt P29376)
MAP3K7 TAB1 (human) = MAP3K7 TAB1 (human) (UniProt O43318+Q15750)
MAPK1 (human) = MAPK1 (human) (UniProt P28482)
Chain of MAPK1 (human) (P28482 whole entry, looked up): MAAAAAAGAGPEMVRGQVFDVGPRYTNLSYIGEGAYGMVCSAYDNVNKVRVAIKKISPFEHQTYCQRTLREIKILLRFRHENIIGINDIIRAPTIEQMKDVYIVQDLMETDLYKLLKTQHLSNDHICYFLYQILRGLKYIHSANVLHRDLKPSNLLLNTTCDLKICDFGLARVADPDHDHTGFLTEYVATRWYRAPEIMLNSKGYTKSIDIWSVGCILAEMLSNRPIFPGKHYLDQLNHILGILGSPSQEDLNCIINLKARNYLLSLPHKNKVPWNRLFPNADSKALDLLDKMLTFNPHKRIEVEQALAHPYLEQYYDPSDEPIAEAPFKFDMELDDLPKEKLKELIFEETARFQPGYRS

MAPK10 (human) = MAPK10 (human) (UniProt P53779)
MAPK3 (human) = MAPK3 (human) (UniProt P27361)
Chain of MAPK3 (human) (P27361 whole entry, looked up): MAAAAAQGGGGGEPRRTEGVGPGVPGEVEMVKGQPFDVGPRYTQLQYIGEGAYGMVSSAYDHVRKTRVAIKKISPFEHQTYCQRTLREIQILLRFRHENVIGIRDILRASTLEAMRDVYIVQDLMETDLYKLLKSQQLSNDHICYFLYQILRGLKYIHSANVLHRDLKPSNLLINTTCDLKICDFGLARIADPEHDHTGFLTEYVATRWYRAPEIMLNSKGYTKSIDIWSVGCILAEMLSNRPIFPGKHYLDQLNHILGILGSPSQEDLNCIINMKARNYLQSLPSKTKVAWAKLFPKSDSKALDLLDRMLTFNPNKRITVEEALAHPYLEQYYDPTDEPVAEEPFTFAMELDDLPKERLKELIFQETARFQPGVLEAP

MARK3 (human) = MARK3 (human) (UniProt P27448)
MARK4 (human) = MARK4 (human) (UniProt Q96L34)
MST4 (human) = MST4 (human) (UniProt Q9P289)
Chain of MST4 (human) (Q9P289 whole entry, looked up): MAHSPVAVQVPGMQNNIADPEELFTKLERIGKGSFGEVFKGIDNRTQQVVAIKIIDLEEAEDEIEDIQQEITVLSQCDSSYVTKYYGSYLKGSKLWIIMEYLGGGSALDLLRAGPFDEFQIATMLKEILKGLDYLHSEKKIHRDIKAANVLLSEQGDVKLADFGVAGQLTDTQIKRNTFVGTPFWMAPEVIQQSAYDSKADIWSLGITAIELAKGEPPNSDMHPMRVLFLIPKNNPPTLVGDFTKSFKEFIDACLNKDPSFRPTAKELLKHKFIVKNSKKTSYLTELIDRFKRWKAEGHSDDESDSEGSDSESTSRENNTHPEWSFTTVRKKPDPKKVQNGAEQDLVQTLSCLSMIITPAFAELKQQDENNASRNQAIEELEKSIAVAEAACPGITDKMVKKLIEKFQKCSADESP

PAK1 (human) = PAK1 (human) (UniProt Q13153)
PHKG2 (human) = PHKG2 (human) (UniProt P15735)
PLK2 (human) = PLK2 (human) (UniProt Q9NYY3)
PRKCZ (human) = PRKCZ (human) (UniProt Q05513)
Chain of PRKCZ (human) (Q05513 whole entry, looked up): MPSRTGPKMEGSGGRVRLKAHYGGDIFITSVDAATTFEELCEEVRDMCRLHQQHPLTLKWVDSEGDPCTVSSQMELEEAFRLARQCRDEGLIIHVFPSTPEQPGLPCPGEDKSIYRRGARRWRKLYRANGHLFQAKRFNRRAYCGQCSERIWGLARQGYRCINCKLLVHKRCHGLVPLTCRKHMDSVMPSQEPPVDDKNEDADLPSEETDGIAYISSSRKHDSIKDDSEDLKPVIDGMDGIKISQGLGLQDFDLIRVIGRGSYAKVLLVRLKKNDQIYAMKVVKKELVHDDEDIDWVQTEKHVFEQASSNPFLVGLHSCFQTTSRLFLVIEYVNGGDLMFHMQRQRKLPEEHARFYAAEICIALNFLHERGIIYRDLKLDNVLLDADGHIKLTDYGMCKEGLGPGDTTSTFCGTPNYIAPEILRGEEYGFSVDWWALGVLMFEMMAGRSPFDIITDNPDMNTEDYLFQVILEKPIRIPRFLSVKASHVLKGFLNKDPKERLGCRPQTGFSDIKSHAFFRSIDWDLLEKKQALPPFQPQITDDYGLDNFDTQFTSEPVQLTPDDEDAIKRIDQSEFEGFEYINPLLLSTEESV

PRKD2 (human) = PRKD2 (human) (UniProt Q9BZL6)
PRKD3 (human) = PRKD3 (human) (UniProt O94806)
PRKX (human) = PRKX (human) (UniProt P51817)
RAF1 (human) = RAF1 (human) (UniProt P04049)
ROCK2 (human) = ROCK2 (human) (UniProt O75116)
RPS6KA1 KD1 KD2 (human) = RPS6KA1 KD1 KD2 (human) (UniProt Q15418)
RPS6KA3 KD1 KD2 (human) = RPS6KA3 KD1 KD2 (human) (UniProt P51812)
Chain of RPS6KA3 KD1 KD2 (human) (P51812 whole entry, looked up): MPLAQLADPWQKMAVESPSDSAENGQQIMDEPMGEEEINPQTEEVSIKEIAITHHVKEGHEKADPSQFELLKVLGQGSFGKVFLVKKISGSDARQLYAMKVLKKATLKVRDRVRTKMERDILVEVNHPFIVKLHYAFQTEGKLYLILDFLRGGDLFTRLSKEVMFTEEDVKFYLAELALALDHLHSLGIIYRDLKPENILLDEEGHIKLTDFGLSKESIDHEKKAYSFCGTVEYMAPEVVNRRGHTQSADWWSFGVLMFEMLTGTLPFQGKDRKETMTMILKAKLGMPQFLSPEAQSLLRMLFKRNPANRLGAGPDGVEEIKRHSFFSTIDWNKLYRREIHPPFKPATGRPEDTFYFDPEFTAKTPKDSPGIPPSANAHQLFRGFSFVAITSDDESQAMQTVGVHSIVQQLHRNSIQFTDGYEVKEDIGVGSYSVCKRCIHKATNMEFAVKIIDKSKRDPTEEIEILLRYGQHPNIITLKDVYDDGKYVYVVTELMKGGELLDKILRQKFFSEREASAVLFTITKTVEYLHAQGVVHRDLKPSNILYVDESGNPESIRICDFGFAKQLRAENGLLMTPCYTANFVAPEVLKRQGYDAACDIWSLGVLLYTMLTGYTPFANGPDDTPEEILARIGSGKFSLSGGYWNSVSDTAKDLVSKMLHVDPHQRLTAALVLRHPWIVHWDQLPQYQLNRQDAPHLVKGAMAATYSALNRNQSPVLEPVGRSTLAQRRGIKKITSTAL

RPS6KB2 (human) = RPS6KB2 (human) (UniProt Q9UBS0)
Chain of RPS6KB2 (human) (Q9UBS0 whole entry, looked up): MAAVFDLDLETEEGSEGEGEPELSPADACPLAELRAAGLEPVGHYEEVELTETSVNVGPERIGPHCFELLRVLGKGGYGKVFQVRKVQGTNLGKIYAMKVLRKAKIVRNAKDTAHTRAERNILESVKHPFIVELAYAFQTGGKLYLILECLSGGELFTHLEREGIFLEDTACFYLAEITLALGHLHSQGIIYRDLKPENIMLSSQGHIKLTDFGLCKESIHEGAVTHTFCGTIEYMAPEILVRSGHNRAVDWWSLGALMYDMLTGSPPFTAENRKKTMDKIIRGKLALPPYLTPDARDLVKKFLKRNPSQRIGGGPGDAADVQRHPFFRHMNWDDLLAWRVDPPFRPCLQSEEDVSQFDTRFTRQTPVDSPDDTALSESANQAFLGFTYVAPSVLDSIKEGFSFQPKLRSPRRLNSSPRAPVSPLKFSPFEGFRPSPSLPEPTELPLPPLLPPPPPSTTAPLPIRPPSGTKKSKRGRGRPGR

SIK2 (human) = SIK2 (human) (UniProt Q9H0K1)
SLK (human) = SLK (human) (UniProt Q9H2G2)
SRC (human) = SRC (human) (UniProt P12931)
STK24 (human) = STK24 (human) (UniProt Q9Y6E0)
Chain of STK24 (human) (Q9Y6E0 whole entry, looked up): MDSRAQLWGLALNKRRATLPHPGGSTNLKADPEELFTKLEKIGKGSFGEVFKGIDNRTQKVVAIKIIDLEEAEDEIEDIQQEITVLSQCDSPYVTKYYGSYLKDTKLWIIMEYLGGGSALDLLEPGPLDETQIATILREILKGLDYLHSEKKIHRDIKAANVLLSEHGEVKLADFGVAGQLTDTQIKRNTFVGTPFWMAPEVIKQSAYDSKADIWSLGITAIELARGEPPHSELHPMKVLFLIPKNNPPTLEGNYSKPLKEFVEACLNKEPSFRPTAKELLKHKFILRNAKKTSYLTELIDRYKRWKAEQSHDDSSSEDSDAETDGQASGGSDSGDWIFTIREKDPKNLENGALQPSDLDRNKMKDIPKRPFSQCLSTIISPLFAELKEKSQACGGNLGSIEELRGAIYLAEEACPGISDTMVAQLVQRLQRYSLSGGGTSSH

TAOK2 (human) = TAOK2 (human) (UniProt Q9UL54)
TGFBR2 (human) = TGFBR2 (human) (UniProt P37173)
ULK2 (human) = ULK2 (human) (UniProt Q8IYT8)
CSF1R (human) = CSF1R (human) (UniProt P07333)
Chain of CSF1R (human) (P07333 whole entry, looked up): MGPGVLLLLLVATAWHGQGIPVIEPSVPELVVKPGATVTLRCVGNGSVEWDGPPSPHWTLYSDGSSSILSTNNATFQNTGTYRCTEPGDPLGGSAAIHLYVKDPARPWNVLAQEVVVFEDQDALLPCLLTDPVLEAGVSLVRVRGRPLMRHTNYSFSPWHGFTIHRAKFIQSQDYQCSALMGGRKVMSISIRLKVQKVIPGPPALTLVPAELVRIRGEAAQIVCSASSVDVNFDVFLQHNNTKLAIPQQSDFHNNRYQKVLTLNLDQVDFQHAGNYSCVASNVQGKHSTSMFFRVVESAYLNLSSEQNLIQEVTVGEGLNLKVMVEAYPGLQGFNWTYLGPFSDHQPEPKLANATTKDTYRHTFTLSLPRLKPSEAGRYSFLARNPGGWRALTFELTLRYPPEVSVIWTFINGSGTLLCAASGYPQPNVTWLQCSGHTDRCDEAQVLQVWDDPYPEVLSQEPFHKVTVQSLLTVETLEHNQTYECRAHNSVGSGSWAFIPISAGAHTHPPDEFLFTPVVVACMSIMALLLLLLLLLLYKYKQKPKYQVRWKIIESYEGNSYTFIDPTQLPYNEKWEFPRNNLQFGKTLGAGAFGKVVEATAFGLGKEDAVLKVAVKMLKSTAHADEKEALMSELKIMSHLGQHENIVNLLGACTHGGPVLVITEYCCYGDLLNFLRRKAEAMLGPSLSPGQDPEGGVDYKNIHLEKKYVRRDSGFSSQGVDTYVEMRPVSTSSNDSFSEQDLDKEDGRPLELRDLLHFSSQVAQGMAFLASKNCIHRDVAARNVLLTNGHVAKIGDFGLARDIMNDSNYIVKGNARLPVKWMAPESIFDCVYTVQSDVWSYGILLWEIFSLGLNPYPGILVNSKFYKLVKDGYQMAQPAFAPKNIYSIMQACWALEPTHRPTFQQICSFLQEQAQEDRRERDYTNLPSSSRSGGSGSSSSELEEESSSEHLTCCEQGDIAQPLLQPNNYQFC

KIT (human) = KIT (human) (UniProt P10721)

Chain of CDK5 CDK5R1 p25 (human) (Q00535 whole entry, looked up): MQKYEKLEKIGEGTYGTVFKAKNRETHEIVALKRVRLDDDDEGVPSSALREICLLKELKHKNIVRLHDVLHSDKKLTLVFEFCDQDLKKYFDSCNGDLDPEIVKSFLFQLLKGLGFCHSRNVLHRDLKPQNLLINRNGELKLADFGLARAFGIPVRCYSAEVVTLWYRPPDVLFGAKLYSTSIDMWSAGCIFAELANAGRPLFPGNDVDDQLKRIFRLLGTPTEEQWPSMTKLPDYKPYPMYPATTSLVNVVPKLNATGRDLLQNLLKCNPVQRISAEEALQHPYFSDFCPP
Chain of CDK5 CDK5R1 p25 (human) (Q15078 whole entry, looked up): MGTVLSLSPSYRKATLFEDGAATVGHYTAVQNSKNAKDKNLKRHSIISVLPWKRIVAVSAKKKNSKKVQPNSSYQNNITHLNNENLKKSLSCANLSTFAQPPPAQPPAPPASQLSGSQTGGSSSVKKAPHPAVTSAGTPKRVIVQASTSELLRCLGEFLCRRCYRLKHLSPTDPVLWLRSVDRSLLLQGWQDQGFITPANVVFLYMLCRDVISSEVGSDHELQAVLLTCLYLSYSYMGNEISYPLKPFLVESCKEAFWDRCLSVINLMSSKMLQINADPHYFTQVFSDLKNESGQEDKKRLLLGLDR

Clc1ccc(Nc2nnc(Cc3ccncc3)c3ccccc23)cc1
residual activity (ACVR1 (human)): 96.1% | residual activity (AKT2 (human)): 104% | residual activity (BLK (human)): 105% | residual activity (CAMK4 (human)): 93.4% | residual activity (CDK5 CDK5R1 p25 (human)): 91.3% | residual activity (CLK4 (human)): 108% | residual activity (CSNK1D (human)): 92.2% | residual activity (EPHB3 (human)): 65.1% | residual activity (EPHB4 (human)): 85.1% | residual activity (FES (human)): 94.7% | residual activity (FGFR1 (human)): 97.2% | residual activity (FGFR2 (human)): 96% | residual activity (IRAK4 (human)): 85.1% | residual activity (LTK (human)): 105% | residual activity (MAP3K7 TAB1 (human)): 99.6% | residual activity (MAPK1 (human)): 87.6% | residual activity (MAPK10 (human)): 116% | residual activity (MAPK3 (human)): 94.7% | residual activity (MARK3 (human)): 102% | residual activity (MARK4 (human)): 104% | residual activity (MST4 (human)): 118% | residual activity (PAK1 (human)): 116% | residual activity (PHKG2 (human)): 91.8% | residual activity (PLK2 (human)): 101% | residual activity (PRKCZ (human)): 69.5% | residual activity (PRKD2 (human)): 86% | residual activity (PRKD3 (human)): 94.7% | residual activity (PRKX (human)): 152% | residual activity (RAF1 (human)): 93.3% | residual activity (ROCK2 (human)): 95.4% | residual activity (RPS6KA1 KD1 KD2 (human)): 113% | residual activity (RPS6KA3 KD1 KD2 (human)): 101% | residual activity (RPS6KB2 (human)): 101% | residual activity (SIK2 (human)): 97.9% | residual activity (SLK (human)): 94.2% | residual activity (SRC (human)): 104% | residual activity (STK24 (human)): 98.7% | residual activity (TAOK2 (human)): 85.4% | residual activity (TGFBR2 (human)): 100% | residual activity (ULK2 (human)): 99.9%

COc1ccc(-c2cnc3c(-c4ccsc4)cnn3c2)cc1
residual activity (ACVR1 (human)): 91.1% | residual activity (AKT2 (human)): 93.3% | residual activity (BLK (human)): 83.5% | residual activity (CAMK4 (human)): 98.4% | residual activity (CDK5 CDK5R1 p25 (human)): 73% | residual activity (CLK4 (human)): 62% | residual activity (CSF1R (human)): 53.6% | residual activity (CSNK1D (human)): 83.6% | residual activity (EPHB3 (human)): 99.4% | residual activity (EPHB4 (human)): 87.5% | residual activity (FES (human)): 98.2% | residual activity (FGFR1 (human)): 80.3% | residual activity (FGFR2 (human)): 92.4% | residual activity (IRAK4 (human)): 82.1% | residual activity (KIT (human)): 36.2% | residual activity (LTK (human)): 98.9% | residual activity (MAP3K7 TAB1 (human)): 97.6% | residual activity (MAPK1 (human)): 99.2% | residual activity (MAPK3 (human)): 99.5% | residual activity (MARK3 (human)): 88.8% | residual activity (MARK4 (human)): 92.7% | residual activity (MST4 (human)): 95.7% | residual activity (PAK1 (human)): 97% | residual activity (PHKG2 (human)): 92.3% | residual activity (PLK2 (human)): 100% | residual activity (PRKCZ (human)): 107% | residual activity (PRKD2 (human)): 97.7% | residual activity (PRKD3 (human)): 100% | residual activity (PRKX (human)): 89.5% | residual activity (RAF1 (human)): 95.5% | residual activity (ROCK2 (human)): 90.4% | residual activity (RPS6KA1 KD1 KD2 (human)): 85.7% | residual activity (RPS6KA3 KD1 KD2 (human)): 83.6% | residual activity (RPS6KB2 (human)): 100% | residual activity (SIK2 (human)): 79.4% | residual activity (SLK (human)): 86.3% | residual activity (SRC (human)): 91.7% | residual activity (STK24 (human)): 95.5% | residual activity (TAOK2 (human)): 97.4% | residual activity (TGFBR2 (human)): 84.1% | residual activity (ULK2 (human)): 103%

COc1cc2ncnc(Nc3ccc(F)c(Cl)c3)c2cc1OCCCN1CCOCC1
residual activity (ACVR1 (human)): 106% | residual activity (BLK (human)): 87.7% | residual activity (CAMK4 (human)): 93.3% | residual activity (CDK5 CDK5R1 p25 (human)): 95.4% | residual activity (CLK4 (human)): 107% | residual activity (CSF1R (human)): 110% | residual activity (CSNK1D (human)): 90.4% | residual activity (EPHB3 (human)): 57.5% | residual activity (FGFR1 (human)): 96.4% | residual activity (FGFR2 (human)): 98.7% | residual activity (IRAK4 (human)): 78.8% | residual activity (LTK (human)): 90.4% | residual activity (MAP3K7 TAB1 (human)): 91.3% | residual activity (MAPK1 (human)): 103% | residual activity (MAPK10 (human)): 102% | residual activity (MAPK3 (human)): 100% | residual activity (MARK3 (human)): 94.5% | residual activity (MARK4 (human)): 94.2% | residual activity (MST4 (human)): 106% | residual activity (PAK1 (human)): 104% | residual activity (PHKG2 (human)): 93.9% | residual activity (PLK2 (human)): 100% | residual activity (PRKCZ (human)): 92.5% | residual activity (PRKD3 (human)): 76.3% | residual activity (RAF1 (human)): 90.9% | residual activity (ROCK2 (human)): 90.8% | residual activity (RPS6KA1 KD1 KD2 (human)): 97.3% | residual activity (RPS6KA3 KD1 KD2 (human)): 100% | residual activity (RPS6KB2 (human)): 101% | residual activity (SIK2 (human)): 49.3% | residual activity (SLK (human)): 83.7% | residual activity (STK24 (human)): 102% | residual activity (TAOK2 (human)): 106% | residual activity (TGFBR2 (human)): 93.8% | residual activity (ULK2 (human)): 104%

C#Cc1cccc(Nc2ncnc3cc(OCCOC)c(OCCOC)cc23)c1
residual activity (ACVR1 (human)): 101% | residual activity (AKT2 (human)): 108% | residual activity (BLK (human)): 79.4% | residual activity (CAMK4 (human)): 94.8% | residual activity (CDK5 CDK5R1 p25 (human)): 90.5% | residual activity (CLK4 (human)): 101% | residual activity (EPHB3 (human)): 58% | residual activity (FES (human)): 105% | residual activity (FGFR1 (human)): 99.1% | residual activity (FGFR2 (human)): 83.4% | residual activity (IRAK4 (human)): 93.8% | residual activity (LTK (human)): 66.3% | residual activity (MAP3K7 TAB1 (human)): 88.8% | residual activity (MAPK1 (human)): 116% | residual activity (MAPK3 (human)): 101% | residual activity (MARK3 (human)): 96.4% | residual activity (MARK4 (human)): 102% | residual activity (MST4 (human)): 106% | residual activity (PAK1 (human)): 109% | residual activity (PHKG2 (human)): 97.9% | residual activity (PLK2 (human)): 104% | residual activity (PRKCZ (human)): 92.3% | residual activity (PRKD2 (human)): 85.9% | residual activity (PRKD3 (human)): 86.5% | residual activity (PRKX (human)): 111% | residual activity (RAF1 (human)): 93.7% | residual activity (ROCK2 (human)): 91% | residual activity (RPS6KA1 KD1 KD2 (human)): 97.6% | residual activity (RPS6KA3 KD1 KD2 (human)): 100% | residual activity (RPS6KB2 (human)): 103% | residual activity (SLK (human)): 42% | residual activity (SRC (human)): 77.4% | residual activity (STK24 (human)): 115% | residual activity (TAOK2 (human)): 106% | residual activity (TGFBR2 (human)): 91.8% | residual activity (ULK2 (human)): 98.7%

CS(=O)c1ccc(-c2nc(-c3ccc(F)cc3)c(-c3ccncc3)[nH]2)cc1 (stereo not drawn)
residual activity (ACVR1 (human)): 97.4% | residual activity (AKT2 (human)): 96.8% | residual activity (BLK (human)): 102% | residual activity (CAMK4 (human)): 101% | residual activity (CDK5 CDK5R1 p25 (human)): 90.6% | residual activity (CLK4 (human)): 98.7% | residual activity (CSF1R (human)): 95.5% | residual activity (CSNK1D (human)): 13.9% | residual activity (EPHB3 (human)): 96.7% | residual activity (EPHB4 (human)): 91.1% | residual activity (FES (human)): 97.3% | residual activity (FGFR1 (human)): 90.7% | residual activity (FGFR2 (human)): 103% | residual activity (IRAK4 (human)): 130% | residual activity (KIT (human)): 91.3% | residual activity (LTK (human)): 101% | residual activity (MAP3K7 TAB1 (human)): 94% | residual activity (MAPK1 (human)): 94.7% | residual activity (MAPK10 (human)): 114% | residual activity (MAPK3 (human)): 101% | residual activity (MARK3 (human)): 101% | residual activity (MARK4 (human)): 98.5% | residual activity (MST4 (human)): 96.8% | residual activity (PAK1 (human)): 99.2% | residual activity (PHKG2 (human)): 102% | residual activity (PLK2 (human)): 95.6% | residual activity (PRKCZ (human)): 103% | residual activity (PRKD3 (human)): 84.1% | residual activity (PRKX (human)): 99.3% | residual activity (RAF1 (human)): 41.1% | residual activity (ROCK2 (human)): 98.4% | residual activity (RPS6KA1 KD1 KD2 (human)): 99.9% | residual activity (RPS6KA3 KD1 KD2 (human)): 95.7% | residual activity (RPS6KB2 (human)): 97.2% | residual activity (SIK2 (human)): 82.1% | residual activity (SLK (human)): 94.1% | residual activity (SRC (human)): 92.6% | residual activity (STK24 (human)): 99% | residual activity (TAOK2 (human)): 94% | residual activity (TGFBR2 (human)): 144% | residual activity (ULK2 (human)): 83.5%
